Key:
Type in all cases: cell-based
Kaiso [1] = assay: EGF treatment: Kaiso nuclear localization by immunofluorescence and subcellular fractionation; details: EGF 10 ng/ml; from 30 minutes to 24 hour; immunofluorescence; DU-145, DU-145WT, PC-3
Description: Unless otherwise set forth herein, immunofluorescence studies comprised plating cells on a 4-chamber slide with 20000 cells. After treatment, they were then washed with PBS, fixed for 30 minutes with cold methanol at room temperature, incubated at room temperature with Lysis Buffer containing 0.1 M Tris, 0.15M NaCl, 0.01 M EGTA, 1% Triton and 1 mM PMSF, blocked for 30 mins in 5% BSA dissolved in PBS, treated with primary antibody (1:100) overnight in the cold room. Cells were stained for p120^ctn and Kaiso.
Next, steps were taken to determine if EGFR signaling was involved in increasing Kaiso levels and/or cytoplasmic to nuclear trans-localization of Kaiso. All three cell lines were treated with EGF (10 ng/ml) over increasing time intervals of 30 minutes, 1 hour, and 24 hours. […] A key finding within DU-145 cells that lack nuclear Kaiso expression was the observation of a predominant Kaiso nuclear staining. […] To determine the specificity of EGFR activity on Kaiso expression levels, an EGFR specific kinase inhibitor, PD153035, was also utilized in the presence or absence of EGF treatment.

Kaiso [2] = assay: EGF treatment: Kaiso mRNA and protein levels by real-time RT-PCR and immunoblot
Description: Unless otherwise herein described, growth factors, such as recombinant human epidermal growth factor (“EGF”), were obtained commercially and was added to serum free media of DMEM and T-media with antibiotics.
Since EGFR over-expressing DU-145WT cells express higher levels of Kaiso than the original DU-145 cells, experiments were further conducted to determine if EGFR signaling would have a direct effect on Kaiso localization and/or expression in prostate cancer cells. As an initial experiment, a dose dependent treatment of EGF consisting of 10, 50 and 100 ng/ml was performed.

p120^ctn = assay: EGF stimulation: p120ctn tyrosine residues Y228, Y96, Y291; details: after 24 hours, DU-145 and DU-145WT
Description: Previous reports have observed that p120^ctn has a specific kinase activity for EGFR on tyrosine residue Y228. Additionally, p120^ctn is a known binding partner for Kaiso. Therefore, experiments were conducted determine whether this was apparent in prostate cancer cell lines as well. Given that p120^ctn has multiple tyrosine residues, including Y228, Y96, Y291, located within the regulator domain, the effect of EGF stimulation on each of these residues was studied. […] It was observed by immunofluorescence that Y228 expression remained cytosolic after 24 hours of EGF treatment.

EGFR = EGFR kinase inhibitor treatment, with or without EGF: Kaiso expression levels and nuclear staining
Description: Next, steps were taken to determine if EGFR signaling was involved in increasing Kaiso levels and/or cytoplasmic to nuclear trans-localization of Kaiso. All three cell lines were treated with EGF (10 ng/ml) over increasing time intervals of 30 minutes, 1 hour, and 24 hours. […] To determine the specificity of EGFR activity on Kaiso expression levels, an EGFR specific kinase inhibitor, PD153035, was also utilized in the presence or absence of EGF treatment.

Compound | nuclear accumulation of Kaiso (Kaiso [1]) | increase in Kaiso mRNA and protein levels (Kaiso [2]; EGF 10 ng/ml (lowest of 10, 50, 100 ng/ml), real-time RT-PCR and immunoblot) | Kaiso increases (Kaiso [2]; EGF 10 ng/ml, 24 hour period, EGFR over-expressing DU145WT cells) [fold] | Kaiso increases at RNA and protein levels (Kaiso [2]; EGF 10 ng/ml, over 24 hour period, DU-145 and PC-3 cells) | expression of p120ctn Y228 (versus Y96 and Y291) (p120^ctn) | Kaiso expression levels (EGFR; 500 nM) | nuclear Kaiso staining (EGFR; DU-145 and PC-3 cells) | EGF induced increases in Kaiso levels (EGFR; pre-treatment before EGF, DU-145 and PC-3 cells)
EGF: recombinant human epidermal growth factor, obtained commercially | Visible nuclear accumulation of Kaiso | At least a two-fold increase | 4 | incremental Kaiso increases | induced the specific increased expression of Y228 |  |  | 
COc1cc2ncnc(Nc3cccc(Br)c3)c2cc1OC [PD153035] |  |  |  |  |  | significantly reduced | lack of nuclear Kaiso staining | completely blocked

— patent US20140302515A1, “BIOMARKERS FOR BREAST CANCER PATIENTS” (TUSKEGEE UNIVERSITY, priority 2010, published 2014)
